Here are results for 12 compounds from patent US20170173060A1, “ACTIVATION OF THE ENDOGENOUS ILEAL BRAKE HORMONE PATHWAY FOR ORGAN REGENERATION AND RELATED COMPOSITIONS, METHODS OF TREATMENT, DIAGNOSTICS, AND REGULATORY SYSTEMS” (VOLANT HOLDINGS GMBH, priority 2014, published 2017).

In one series the test system is MIN-6 cells. As to conditions: cited from earlier work.
The conditions of series [1]: 1500 mg taken in three doses of 500 mg; cited from earlier work.
The subject of series [2] is hypercholesterolemic New Zealand White rabbits. As to conditions: cited from earlier work.
Another series concerns C57BL/6J mice. The note with it: 1 mg/kg body weight, cited from earlier work.
Another series relates to patients with RA. The note with it: human, in vivo; cited from earlier work.
The test system of series [3] is high-risk cardiovascular disease (CVD) patients. As to conditions: cited from earlier work.
In a further series the test system is people with stable COPD. The note with it: in vivo; cited from earlier work.
For series [4], the system named is patients with initial abnormal values. The experiment in a line: Rate of change of weight, HBA1c, HDL, TG and AST in RYGB, Brake, combination and control patients (FIGS. 18-22). In kind it is in vivo, human.
Series [5] has as its system patients with metabolic syndrome. The experiment in a line: FS index of metabolic syndrome tracked over time in patient groups (neural net model). In kind it is in vivo, human. The source says:
The FS index (Fayad/Schentag) of MS (the relevant equation for which appears in attached FIG. 15) considers the following: Fasting Blood Glucose, Fasting Insulin, HBA1c, BMI, AST, Triglycerides, Glucose Supply-Demand (SD) index, and Proinsulin. Each parameter is mathematically arranged to increase as MS worsens, and weighted approximately equally in the prediction of MS progression and risk for organ damage.
The FS index was then applied to well-studied patient populations already in databases, using a neural net model and the equation set forth in FIG. 15 (and as above). The database included previously published 50 patients with T2D having CV events principally myocardial infarctions, and controls of a precisely matched group of T2D patients without these events (2, 3). […] For each study patient, we had complete access to all raw data, measured vital signs, culture results, and clinician assessments. […]
FS index values were calculated from serial laboratory and clinical data over timeframes ranging between 2 and 10 years. […]
The FS index was applied to well-studied patient populations already in our databases, using a neural net model. […] FS index values were calculated from serial laboratory and clinical data over timeframes ranging 2-10 years. […]

A short description of series [6]: Case of patient (T2D, chronic hepatitis B, steatosis) on Januvia and Brake. In kind it is in vivo, human. The note with it: 6 months after stopping Brake, sitagliptin continued. The method, then: Both their Triglycerides and hepatic enzymes were 2-3× elevated. […] Their diabetic control deteriorated on this regimen, to the point where they were considered a candidate for insulin. As an alternative, patient was started on Januvia (sitagliptin) 100 mg per day and 7 pills of Brake™. After 6 months treatment, their HBA1c became normal at 6.0, indicating pancreatic regeneration from the combination product. […] They lost 35 lbs. After 6 months, they stopped the Brake™ therapy but continued sitagliptin. By 6 months later they began to gain weight and their HBA1c rose above 6.0, whereupon they resumed taking Brake™ tablets with return of their HBA1c to normal once again. This case taught the inventors that Brake™ associated organ regeneration is a long lived effect of the combination but not a permanent effect. In fact it is often notable that RYGB patients lose the effects of the surgical procedure after two or more years, and it appears that resumption of dietary indiscretion leads to recrudescence of the metabolic syndrome. Patients are thus advised to be vigilant, particularly if weight gain resumes.

Series [7] relates to human abdominal subcutaneous (AbdSc) adipocytes. The note with it: cited from earlier work.

“Also recorded” adds a separate entry of the source.

`COc1cc(/C=C(\C#N)C(N)=O)cc(CSc2nc3ccccc3s2)c1O` [AG825]: in the series with MIN-6 cells, the “effect on BTC proliferative effect” value is “blocked”.

Regarding `COc1cc2ncnc(Nc3cccc(Cl)c3)c2cc1OC` [AG1478], the “effect on BTC proliferative effect” value in the series on MIN-6 cells is “blocked”.

On to `COc1ccc2cc3[n+](cc2c1OC)CCc1cc2c(cc1-3)OCO2` [Berberine], for which, in [1], the “anti-diabetic effects (biomarkers of type 2 diabetes)” value was “appear to be equal to those of 1500 mg Metformin or 4 mg Glibenclamide”.

As to `CCCCCCCCCCC(C)(C)C(=O)Nc1c(OC)cc(OC)cc1OC` [CI-976, 2,2-dimethyl-N-(2,4,6-trimethoxyphenyl) dodecanamide], in [2] (rabbit, in vivo), the “decrease of cholesteryl ester enrichment in thoracic aorta” value was 46% and the “effect on plasma triglycerides” value was “no effect”. The “reduction of foam cell area in iliac-femoral lesion” value in series [2] (relative to the initiation of intervention, dose that did not lower plasma cholesterol) is given as 27-29%.

As for `CC(C)=CCC[C@](C)(O)[C@H]1CC[C@]2(C)[C@@H]1[C@H](O)C[C@@H]1[C@@]3(C)CC[C@H](O[C@@H]4O[C@H](CO)[C@@H](O)[C@H](O)[C@H]4O)C(C)(C)[C@@H]3CC[C@]12C` [GS-Rh2, ginsenoside Rh2], the “glycemia and glucose tolerance” value in the series with C57BL/6J mice (within 14 days post-PPx) was “improved glycemia and glucose tolerance”. Moreover, the beta-cell proliferation entry in the series on C57BL/6J mice is reported as “increased beta-cell proliferation percentages”.

On to `CN(Cc1cnc2nc(N)nc(N)c2n1)c1ccc(C(=O)N[C@@H](CCC(=O)O)C(=O)O)cc1` [MTX, Methotrexate], for which the “risk of CVD events” value in the series with patients with RA was “associated with a reduced risk of CVD events”.

In the case of `COc1cc(OC)c2c(=O)[nH]c(-c3cc(C)c(OCCO)c(C)c3)nc2c1` [RVX-208], the “change of ratio of necrotic core to dense calcium (NC/DC)” value in series [3] (VH-IVUS, treated patients n=61) was −7.5%. Moreover, the “incidence of MACE lower vs. placebo” value in series [3] (patients with hsCRP >2.0 mg/dL) is 63%.

In the case of `O=C(Nc1c(Cl)cncc1Cl)c1ccc(OC(F)F)c(OCC2CC2)c1` [Roflumilast], the “body weight during the trial period” value with people with stable COPD was “weight loss”.

Consider `CC(C)c1c(C(=O)Nc2ccccc2)c(-c2ccccc2)c(-c2ccc(F)cc2)n1CC[C@@H](O)C[C@@H](O)CC(=O)O` [atorvastatin], for which, in series [4] (FIG. 20, control patients mostly atorvastatin 10 mg), the HDL change result is “essentially no change in HDL”. Also, the “triglyceride (TG) changes” value in series [4] (FIG. 21) is “either stayed the same or had a minor drop in TG”. Moreover, the “AST concentrations and rate of change” value in series [4] (FIG. 22) is reported as “little effect on hepatic inflammation”.

For `CN(C)C(=N)N=C(N)N` [metformin], in series [4] (FIG. 18), the weight change entry was “either stayed the same or lost a few pounds”. Moreover, the HBA1c change result in series [4] (FIG. 19) is “either stayed the same or had a minor drop in HBA1c”. Besides, the “effect on metabolic syndrome biomarkers when given alone” value in series [4] (FIGS. 18-21 control patients) was “little effect”. Further, the “parameters that would indicate regeneration” value in [5] (control patients, even at dosages of 2.0 grams daily) is reported as “no significant change”. The “pattern of FS index over time” value in series [5] (metformin alone, 61 patients (FIG. 5)) is reported as “rises; also recorded: flat or slowly rising”.

`N[C@@H](CC(=O)N1CCn2c(nnc2C(F)(F)F)C1)Cc1cc(F)c(F)cc1F` [sitagliptin]: the HBA1c entry in [6] is on record as “above 6.0”.

On to lipopolysaccharide [LPS], for which the “TLR-2 protein expression increase” value in series [7] is on record as “twofold”. Besides, in series [7] (control 1.0+/-0.83), the TNF-alpha secretion is 32.8 ± 6.23 pg/mL. Also, the IL-6 secretion in series [7] (control 2.7+/-0.5) is 4.8 ± 0.3 ng/mL.
